From PubChem BioAssay (NCI)
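How tested: cells in 96-well plates exposed to compound for 48 hours at five concentrations. Here, GI50 denotes the concentration required for 50% inhibition of growth. TGI denotes the concentration required for complete inhibition of growth.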

What was measured:
Assay in all cases: NCI-60 cell line screen, 48 h
KM12 colon = system: KM12 colon
K-562 leukemia = system: K-562 leukemia
M14 melanoma = system: M14 melanoma
SK-OV-3 ovarian = system: SK-OV-3 ovarian
MDA-MB-468 breast = system: MDA-MB-468 breast
SF-295 CNS = system: SF-295 CNS
CAKI-1 renal = system: CAKI-1 renal
U251 CNS = system: U251 CNS
NCI-H23 lung = system: NCI-H23 lung
SN12C renal = system: SN12C renal
TK-10 renal = system: TK-10 renal
HCT-15 colon = system: HCT-15 colon
MALME-3M melanoma = system: MALME-3M melanoma
SW-620 colon = system: SW-620 colon
NCI-H226 lung = system: NCI-H226 lung
OVCAR-5 ovarian = system: OVCAR-5 ovarian
ACHN renal = system: ACHN renal
NCI-H460 lung = system: NCI-H460 lung
OVCAR-4 ovarian = system: OVCAR-4 ovarian
HOP-62 NSCLC = system: HOP-62 NSCLC
MCF7 breast = system: MCF7 breast
CCRF-CEM leukemia = system: CCRF-CEM leukemia
HCC-2998 colon = system: HCC-2998 colon
RXF 393 renal = system: RXF 393 renal
SK-MEL-2 melanoma = system: SK-MEL-2 melanoma
SK-MEL-5 melanoma = system: SK-MEL-5 melanoma
T-47D breast = system: T-47D breast
EKVX NSCLC = system: EKVX NSCLC
NCI-H522 lung = system: NCI-H522 lung
SF-268 CNS = system: SF-268 CNS
BT-549 breast = system: BT-549 breast
UACC-62 melanoma = system: UACC-62 melanoma
HL-60(TB) leukemia = system: HL-60(TB) leukemia
MDA-MB-231 breast = system: MDA-MB-231 breast
COLO 205 colon = system: COLO 205 colon
HCT-116 colon = system: HCT-116 colon
A549 NSCLC = system: A549 NSCLC
SF-539 CNS = system: SF-539 CNS
MDA-MB-435 = system: MDA-MB-435
HS 578T breast = system: HS 578T breast
786-0 renal = system: 786-0 renal
HOP-92 NSCLC = system: HOP-92 NSCLC
A498 renal = system: A498 renal
NCI/ADR-RES ovarian = system: NCI/ADR-RES ovarian
DU-145 prostate = system: DU-145 prostate
MOLT-4 leukemia = system: MOLT-4 leukemia
OVCAR-3 ovarian = system: OVCAR-3 ovarian
IGROV1 ovarian = system: IGROV1 ovarian
SR leukemia = system: SR leukemia
SNB-19 CNS = system: SNB-19 CNS
UO-31 renal = system: UO-31 renal
SNB-75 CNS = system: SNB-75 CNS
RPMI-8226 leukemia = system: RPMI-8226 leukemia
OVCAR-8 ovarian = system: OVCAR-8 ovarian
SK-MEL-28 melanoma = system: SK-MEL-28 melanoma
PC-3 prostate = system: PC-3 prostate
HT29 colon = system: HT29 colon
UACC-257 melanoma = system: UACC-257 melanoma

Compound: Cn1cc(-c2cc(N)n3nc(-c4cn(C)c5ccccc45)cc3n2)c2cc(Cl)ccc21
- GI50 (KM12 colon): 2.15 µM
- TGI (KM12 colon): 4.83 µM
- GI50 (K-562 leukemia): 2.97 µM
- TGI (K-562 leukemia): 10.6 µM
- GI50 (M14 melanoma): 1.95 µM
- TGI (M14 melanoma): 4.71 µM
- GI50 (SK-OV-3 ovarian): 18 µM
- TGI (SK-OV-3 ovarian): 48.2 µM
- GI50 (MDA-MB-468 breast): 2.2 µM
- TGI (MDA-MB-468 breast): 5.36 µM
- GI50 (SF-295 CNS): 1.92 µM
- TGI (SF-295 CNS): 4.26 µM
- GI50 (CAKI-1 renal): 2 µM
- TGI (CAKI-1 renal): 5.54 µM
- GI50 (U251 CNS): 1.86 µM
- TGI (U251 CNS): 3.73 µM
- GI50 (NCI-H23 lung): 3.75 µM
- TGI (NCI-H23 lung): 20.5 µM
- GI50 (SN12C renal): 1.77 µM
- TGI (SN12C renal): 3.33 µM
- GI50 (TK-10 renal): 11.7 µM
- TGI (TK-10 renal): 26.6 µM
- GI50 (HCT-15 colon): 1.84 µM
- TGI (HCT-15 colon): 3.95 µM
- GI50 (MALME-3M melanoma): 1.71 µM
- TGI (MALME-3M melanoma): 3.22 µM
- GI50 (SW-620 colon): 2.17 µM
- TGI (SW-620 colon): 4.8 µM
- GI50 (NCI-H226 lung): > 100 µM
- TGI (NCI-H226 lung): > 100 µM
- GI50 (OVCAR-5 ovarian): 5.16 µM
- TGI (OVCAR-5 ovarian): 25.5 µM
- GI50 (ACHN renal): 2.05 µM
- TGI (ACHN renal): 4.46 µM
- GI50 (NCI-H460 lung): 2.2 µM
- TGI (NCI-H460 lung): 4.96 µM
- GI50 (OVCAR-4 ovarian): 3.28 µM
- TGI (OVCAR-4 ovarian): 11.3 µM
- GI50 (HOP-62 NSCLC): 5.29 µM
- TGI (HOP-62 NSCLC): 26.4 µM
- GI50 (MCF7 breast): 1.77 µM
- TGI (MCF7 breast): 4.13 µM
- GI50 (CCRF-CEM leukemia): 3.22 µM
- TGI (CCRF-CEM leukemia): 15.3 µM
- GI50 (HCC-2998 colon): 1.78 µM
- TGI (HCC-2998 colon): 3.34 µM
- GI50 (RXF 393 renal): 1.98 µM
- TGI (RXF 393 renal): 4.01 µM
- GI50 (SK-MEL-2 melanoma): 1.84 µM
- TGI (SK-MEL-2 melanoma): 4.1 µM
- GI50 (SK-MEL-5 melanoma): 3.5 µM
- TGI (SK-MEL-5 melanoma): 13 µM
- GI50 (T-47D breast): 10.1 µM
- TGI (T-47D breast): 33.3 µM
- GI50 (EKVX NSCLC): 12.6 µM
- TGI (EKVX NSCLC): 37.4 µM
- GI50 (NCI-H522 lung): 1.6 µM
- TGI (NCI-H522 lung): 3.48 µM
- GI50 (SF-268 CNS): 8.07 µM
- TGI (SF-268 CNS): 32.7 µM
- GI50 (BT-549 breast): 14.6 µM
- TGI (BT-549 breast): 33.4 µM
- GI50 (UACC-62 melanoma): 1.64 µM
- TGI (UACC-62 melanoma): 3.16 µM
- GI50 (HL-60(TB) leukemia): 2.35 µM
- TGI (HL-60(TB) leukemia): 5.81 µM
- GI50 (MDA-MB-231 breast): 1.82 µM
- TGI (MDA-MB-231 breast): 3.3 µM
- GI50 (COLO 205 colon): 1.97 µM
- TGI (COLO 205 colon): 3.95 µM
- GI50 (HCT-116 colon): 1.87 µM
- TGI (HCT-116 colon): 3.87 µM
- GI50 (A549 NSCLC): 2.68 µM
- TGI (A549 NSCLC): 10.7 µM
- GI50 (SF-539 CNS): 1.85 µM
- TGI (SF-539 CNS): 3.83 µM
- GI50 (MDA-MB-435): 2.06 µM
- TGI (MDA-MB-435): 4.26 µM
- GI50 (HS 578T breast): 3.3 µM
- TGI (HS 578T breast): 19.4 µM
- GI50 (786-0 renal): 1.74 µM
- TGI (786-0 renal): 3.45 µM
- GI50 (HOP-92 NSCLC): 2.23 µM
- TGI (HOP-92 NSCLC): 6.51 µM
- GI50 (A498 renal): 14.3 µM
- TGI (A498 renal): 32.3 µM
- GI50 (NCI/ADR-RES ovarian): 3.03 µM
- TGI (NCI/ADR-RES ovarian): 9.38 µM
- GI50 (DU-145 prostate): 6.37 µM
- TGI (DU-145 prostate): > 100 µM
- GI50 (MOLT-4 leukemia): 2.58 µM
- TGI (MOLT-4 leukemia): 9.61 µM
- GI50 (OVCAR-3 ovarian): 11.3 µM
- TGI (OVCAR-3 ovarian): 28.1 µM
- GI50 (IGROV1 ovarian): 2.45 µM
- TGI (IGROV1 ovarian): 8.26 µM
- GI50 (SR leukemia): 2.03 µM
- TGI (SR leukemia): 6.77 µM
- GI50 (SNB-19 CNS): 3.45 µM
- TGI (SNB-19 CNS): 23.8 µM
- GI50 (UO-31 renal): 1.63 µM
- TGI (UO-31 renal): 3.07 µM
- GI50 (SNB-75 CNS): 10.6 µM
- TGI (SNB-75 CNS): 26.6 µM
- GI50 (RPMI-8226 leukemia): 3.27 µM
- TGI (RPMI-8226 leukemia): 14.9 µM
- GI50 (OVCAR-8 ovarian): 2.09 µM
- TGI (OVCAR-8 ovarian): 4.59 µM
- GI50 (SK-MEL-28 melanoma): 1.69 µM
- TGI (SK-MEL-28 melanoma): 3.08 µM
- GI50 (PC-3 prostate): 1.93 µM
- TGI (PC-3 prostate): 4.91 µM
- GI50 (HT29 colon): 1.79 µM
- TGI (HT29 colon): 3.51 µM
- GI50 (UACC-257 melanoma): 2.44 µM
- TGI (UACC-257 melanoma): 7.17 µM
